Laboratory results as given in patent US9896448B2, “Pyrimido[4,5-b]quinoline-4,5(3H, 10H)-dione derivatives” (Novartis AG, priority 2014, dated 2018).
pEC50: −log10 of the molar value.

Tests used:
[1] = test system: alpha-L-Iduronidase W402X in Hurler patient derived fibroblast cells; experiment: Hurler patient derived fibroblast cell cultures: restored alpha-L-iduronidase activity (W402X readthrough); type: cell-based; details: Homo sapiens, 192 h, 8 days incubation, highest concentration 20 uM; for Emax: 100% = 14 mM paromomycin, read-out: Amax
From the text: Activity of compounds of the present invention was examined in patient derived fibroblast cells. The genotyped cells were derived from the Coriell Institute (#GM00798) and contain an in frame homozygous TGG to TAG change at nucleotide 1293 of exon 9 which results in a W402X mutation. The W402X mutation is one of the most common Hurler syndromes causing loss of function mutation. Between 60-70% of genotyped patients contain either the Q70X and/or the W402X in mutation and are classified as severe MPSI patients. This TAG stop codon triplet is permissive to aminoglycoside mediated translational readthrough which served as activity control for compound testing. Readthrough of W402X restores alpha-L-Iduronidase activity which results in removal of lysosomal accumulated Glycosaminoglycan's. Iduronidase expression could neither be detected by Taqman PCR© nor by enzyme activity or ELISA methods without compound stimulation. Compounds were tested in concentration response mode. Therefore 5000 patient cells/40 ul/well in 384 well plates were used. Compound dilutions were derived from freshly prepared 10 mM compound stock solutions. Highest concentration was 20 uM and subsequently diluted 1: 3.16 (8 point dilutions, n=4). Final DMSO concentration was below 0.5% and tested to be without effect on cell viability, growth and readthrough. Cells were incubated for 8 days with one cell media and compound exchange at day 3. Thereafter cell media was removed and cells were lysed (0.4 M Sodiumformate, 0.1% NaN3, 0.9% NaCl, 0.2% Triton, pH 3.5). Restored alpha-L-iduronidase activity in cell lysates was measured with the fluorescent 4-MU iduronide substrate (5 ul of 0.4 mM 4 Methylumbelliferyl alpha-L-iduronide/well) after 48 h incubation. Paromomycin was used as reference control (14 mM=100% control).

[2] = test system: CFTR-Y122X; experiment: CFTR-Y122X assay (dual reporter Hek293 cell lines, Renilla luminescence readthrough); type: cell-based, human; details: for Emax / AC50: nonsense mutation suppression, 24 h incubation, tested up to 100 μM; for Emax: 100% = 14 mM paromomycin, read-out: Amax; for AC50: Renilla luminescence
From the text: In particular, compounds of formula (I) act as nonsense mutation suppressors on frequent PTCs, e.g. on Y122X in the mRNA of the cystic fibrosis conductance regulator protein (CFTR). This can be determined in vitro, for example, using cell lines expressing GFP-CFTR-Y122X-Renilla constructs as described herein.
Activity of compounds of the present invention was examined in recombinant, dual reporter isogenic Hek293 cell lines (“CFTR-Y122X assay”). The engineered reporter constructs contained the 18 bp sequence strech corresponding to a common Y122X PTC mutation in CFTR class I mutant patients (see Sermet-Gaudelus, BMC Medicine, 2007, 5(5)). Instead of a tyrosine (Y) in position 122 of the CFTR protein a TGA stop codon interrupts the open reading frame (Y122X) of the corresponding mRNA. This TGA stop codon triplet (followed by the pyrimidine base cytosine) is permissive to aminoglycoside mediated translational readthrough which served as positive control for high throughput screening. A corresponding TAA stop codon variant and a wildtype non mutated construct was used for confirmation and counter screening. The CFTR sequence was sandwitched between an eGFP reporter, and a triple myc tag sequence fused to a full length Renilla reporter. All sequences, including an intron containing one positioned pre-eGFP (b-globin intron) were cloned in frame. The corresponding expression constructs were stably expressed in the isogenic HEK-R4 cell host (Invitrogen Incorp.) and selected by blasticidin resistance. The isogenic integration of the construct minimizes gene dose effects and improves assay reproducibility. Stably integrated single cell derived clones were selected and characterized for aminoglycoside mediated readthrough. […] Readthrough of Y122X accumulates an intracellular localized fusion protein approximately 65.5 kDa in size as controlled by western blot analysis and immunofluorescence using an anti-renilla antibody. The eGFP reporter pre-PTC mutation serves as visual control for genetic stability of the screening clones and minimizes protein degradation of small fusion protein amounts. In the assay, compound concentration was 10 μM. In miniaturized 1536 well format 2000 cells were dispensed in 4 μl/well and incubated for 24 h at 37° C., 5% CO2. 40 nl compounds were placed on the cells with control wells containing 1 ul Paramomycin and 14.4 mM final concentration. Compounds were incubated for 24 h. Renilla Glo substrate (2.5 ul) was added and plates were centrifuged and processed for luminescence measurement using various readers. Activity calculation was done using the equation: A1(%)=100*(S−NC)/(AC−NC) where AC, NC and S correspond to active controls (injection of Stimulation buffer=100% stimulation), neutral controls (buffer injection which […]) and screening samples (S). NC corresponds to 0% activity whereas AC is 100% activity (14 mM paromomycin). False positive artefacts were removed in confirmation and validation screening using the same assay format followed by counterscreening using the respective wildtype construct (w/o PTC mutation) cell model. Compounds were tested up to 100 μM compound concentration.

Row | pEC50 ([2]; Homo sapiens, HEK293, clone selected for HTS assay development, read-out: EC50 (response of selected clone to aminoglycoside mediated readthrough)) | Structure (SMILES) | Emax [1] [%] | Emax ([2]; Homo sapiens, HEK293) [%] | AC50 ([2]; Homo sapiens, HEK293) [µM] | AC50 ([1]; 8 point dilutions) [µM] | suppression, % of paromomycin reference activity ([2]; at the above dose ranges (up to 100 μM), paromomycin reference = 100%)
1 |  | CC(C)c1nc2c(c(=O)c3ccccc3n2C)c(=O)n1-c1cc[nH]n1 [Example 1.1, 2-isopropyl-10-methyl-3-(1H-pyrazol-3-yl)pyrimido[4,5-b]quinoline-4,5(3H,10H)-dione] | 7 | 14.8 | 6.7 |  | 
2 |  | Cn1c2ccccc2c(=O)c2c(=O)n(-c3ccccn3)c(C3CCC3)nc21 [Example 1.8, 2-cyclobutyl-10-methyl-3-(pyridin-2-yl)pyrimido[4,5-b]quinoline-4,5(3H,10H)-dione] | 184 | 271 | 4.8 | 9.9 | 
3 | 2.82 | NC[C@@H]1O[C@H](O[C@H]2[C@@H](O)[C@H](O[C@@H]3[C@@H](O)[C@H](N)C[C@H](N)[C@H]3O[C@H]3O[C@H](CO)[C@@H](O)[C@H](O)[C@H]3N)O[C@@H]2CO)[C@H](N)[C@@H](O)[C@@H]1O [paromomycin, reference compound] |  |  |  |  | 
4 |  | CC(C)c1nc2c(c(=O)c3ccccc3n2C)c(=O)n1-c1ccccn1 [Example 1.7, 2-isopropyl-10-methyl-3-(pyridin-2-yl)pyrimido[4,5-b]quinoline-4,5(3H,10H)-dione] | 11 | 164 | 11.7 |  | 
5 |  | CC(C)c1nc2c(c(=O)c3ccccc3n2C)c(=O)n1-c1ccsc1 [Example 1.5, 2-isopropyl-10-methyl-3-(thiophen-3-yl)pyrimido[4,5-b]quinoline-4,5(3H,10H)-dione] | 5 | 128 | 12.3 |  | 
6 |  | CC(C)c1nc2c(c(=O)c3ccccc3n2C)c(=O)n1-c1ccnn1C [2-isopropyl-10-methyl-3-(1-methyl-1H-pyrazol-5-yl)pyrimido[4,5-b]quinoline-4,5(3H,10H)-dione] |  |  |  |  | less than 5%
7 |  | CCCc1nc2c(c(=O)c3ccccc3n2C)c(=O)n1-c1ccccn1 [Example 1.2, 10-methyl-2-propyl-3-(pyridin-2-yl)pyrimido[4,5-b]quinoline-4,5(3H,10H)-dione] | 1 | 235 | 18 |  | 
8 |  | CCCc1nc2c(c(=O)c3ccccc3n2C)c(=O)n1-c1ccn(C)n1 [Example 1.3, 10-methyl-3-(1-methyl-1H-pyrazol-3-yl)-2-propylpyrimido[4,5-b]quinoline-4,5(3H,10H)-dione] | 8 | 202 | 31.8 |  | 
9 |  | CC(C)c1nc2c(c(=O)c3ccccc3n2C)c(=O)n1-c1ccncc1 [Example 1.6, 2-isopropyl-10-methyl-3-(pyridin-4-yl)pyrimido[4,5-b]quinoline-4,5(3H,10H)-dione] | 5 | 14.9 | 2.9 |  | 
10 |  | CC(C)c1nc2c(c(=O)c3ccccc3n2C)c(=O)n1-c1ccn(C)n1 [Example 1.4, 2-isopropyl-10-methyl-3-(1-methyl-1H-pyrazol-3-yl)pyrimido[4,5-b]quinoline-4,5(3H,10H)-dione] | 21 | 133 | 13.6 |  | 
